Where a name gives a salt, the structure may show the parent alone. Values belong to the molecule of their own block, whether it stands above or below them.
Legend:
[1] = target: ATP-binding cassette sub-family C member 3 (Homo sapiens, UniProt O15438); experiment: Inhibition of human MRP3 overexpressed in Sf9 insect cell membrane vesicles assessed as uptake of [3H]-estradiol-17beta-D-glucuronide in presence of ATP and GSH measured after 10 mins by membrane vesicle transport assay; format: ADME, cell-based
[2] = target: T1, ATP-binding cassette sub-family C member 4 (Homo sapiens, UniProt O15439); experiment: Inhibition of human MRP4 overexpressed in Sf9 cell membrane vesicles assessed as uptake of [3H]-estradiol-17beta-D-glucuronide in presence of ATP and GSH measured after 20 mins by membrane vesicle transport assay; format: ADME, cell-based
T1 sequence (O15439 whole entry): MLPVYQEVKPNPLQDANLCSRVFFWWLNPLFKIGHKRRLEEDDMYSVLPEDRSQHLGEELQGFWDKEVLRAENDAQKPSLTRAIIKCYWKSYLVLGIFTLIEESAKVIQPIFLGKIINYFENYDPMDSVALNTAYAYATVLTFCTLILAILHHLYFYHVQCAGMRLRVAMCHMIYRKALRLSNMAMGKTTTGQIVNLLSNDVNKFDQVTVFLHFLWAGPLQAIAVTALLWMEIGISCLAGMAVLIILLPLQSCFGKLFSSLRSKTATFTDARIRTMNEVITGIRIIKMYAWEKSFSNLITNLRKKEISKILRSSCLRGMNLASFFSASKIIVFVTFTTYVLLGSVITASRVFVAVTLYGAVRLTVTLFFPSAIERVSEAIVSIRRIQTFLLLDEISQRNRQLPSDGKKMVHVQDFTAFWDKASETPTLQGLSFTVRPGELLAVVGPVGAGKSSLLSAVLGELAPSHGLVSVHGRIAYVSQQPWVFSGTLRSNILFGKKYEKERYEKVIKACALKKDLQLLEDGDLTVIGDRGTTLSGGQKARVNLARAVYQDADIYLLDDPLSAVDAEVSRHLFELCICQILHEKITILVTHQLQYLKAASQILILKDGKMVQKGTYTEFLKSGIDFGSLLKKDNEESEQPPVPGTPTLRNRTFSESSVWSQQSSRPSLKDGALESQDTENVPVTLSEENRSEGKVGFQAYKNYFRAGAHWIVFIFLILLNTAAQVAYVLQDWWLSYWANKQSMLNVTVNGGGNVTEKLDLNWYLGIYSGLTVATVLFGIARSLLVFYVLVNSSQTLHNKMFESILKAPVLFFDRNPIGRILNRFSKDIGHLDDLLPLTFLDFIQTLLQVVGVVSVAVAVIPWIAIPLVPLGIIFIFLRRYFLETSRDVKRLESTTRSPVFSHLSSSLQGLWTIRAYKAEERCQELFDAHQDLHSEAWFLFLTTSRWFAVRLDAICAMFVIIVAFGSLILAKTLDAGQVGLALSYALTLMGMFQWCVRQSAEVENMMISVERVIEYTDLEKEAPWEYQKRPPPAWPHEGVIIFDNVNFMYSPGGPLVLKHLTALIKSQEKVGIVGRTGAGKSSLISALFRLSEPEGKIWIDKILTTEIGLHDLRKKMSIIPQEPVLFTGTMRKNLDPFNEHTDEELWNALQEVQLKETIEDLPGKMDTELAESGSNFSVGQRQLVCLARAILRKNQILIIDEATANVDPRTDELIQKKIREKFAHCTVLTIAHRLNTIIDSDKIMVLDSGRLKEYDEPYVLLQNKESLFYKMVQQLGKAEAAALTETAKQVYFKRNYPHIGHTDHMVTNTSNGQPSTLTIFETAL

Bile salt export pump = Bile salt export pump (Homo sapiens, UniProt O95342); experiment: Inhibition of human BSEP overexpressed in Sf9 cell membrane vesicles assessed as uptake of [3H]-taurocholate in presence of ATP measured after 15 to 20 mins by membrane vesicle transport assay; format: ADME, cell-based
[3] = target: ATP-binding cassette sub-family C member 2 (Homo sapiens, UniProt Q92887); experiment: Inhibition of human MRP2 overexpressed in Sf9 cell membrane vesicles assessed as uptake of [3H]-estradiol-17beta-D-glucuronide in presence of ATP and GSH measured after 20 mins by membrane vesicle transport assay
Sequence of ATP-binding cassette sub-family C member 2 (Q92887 whole entry): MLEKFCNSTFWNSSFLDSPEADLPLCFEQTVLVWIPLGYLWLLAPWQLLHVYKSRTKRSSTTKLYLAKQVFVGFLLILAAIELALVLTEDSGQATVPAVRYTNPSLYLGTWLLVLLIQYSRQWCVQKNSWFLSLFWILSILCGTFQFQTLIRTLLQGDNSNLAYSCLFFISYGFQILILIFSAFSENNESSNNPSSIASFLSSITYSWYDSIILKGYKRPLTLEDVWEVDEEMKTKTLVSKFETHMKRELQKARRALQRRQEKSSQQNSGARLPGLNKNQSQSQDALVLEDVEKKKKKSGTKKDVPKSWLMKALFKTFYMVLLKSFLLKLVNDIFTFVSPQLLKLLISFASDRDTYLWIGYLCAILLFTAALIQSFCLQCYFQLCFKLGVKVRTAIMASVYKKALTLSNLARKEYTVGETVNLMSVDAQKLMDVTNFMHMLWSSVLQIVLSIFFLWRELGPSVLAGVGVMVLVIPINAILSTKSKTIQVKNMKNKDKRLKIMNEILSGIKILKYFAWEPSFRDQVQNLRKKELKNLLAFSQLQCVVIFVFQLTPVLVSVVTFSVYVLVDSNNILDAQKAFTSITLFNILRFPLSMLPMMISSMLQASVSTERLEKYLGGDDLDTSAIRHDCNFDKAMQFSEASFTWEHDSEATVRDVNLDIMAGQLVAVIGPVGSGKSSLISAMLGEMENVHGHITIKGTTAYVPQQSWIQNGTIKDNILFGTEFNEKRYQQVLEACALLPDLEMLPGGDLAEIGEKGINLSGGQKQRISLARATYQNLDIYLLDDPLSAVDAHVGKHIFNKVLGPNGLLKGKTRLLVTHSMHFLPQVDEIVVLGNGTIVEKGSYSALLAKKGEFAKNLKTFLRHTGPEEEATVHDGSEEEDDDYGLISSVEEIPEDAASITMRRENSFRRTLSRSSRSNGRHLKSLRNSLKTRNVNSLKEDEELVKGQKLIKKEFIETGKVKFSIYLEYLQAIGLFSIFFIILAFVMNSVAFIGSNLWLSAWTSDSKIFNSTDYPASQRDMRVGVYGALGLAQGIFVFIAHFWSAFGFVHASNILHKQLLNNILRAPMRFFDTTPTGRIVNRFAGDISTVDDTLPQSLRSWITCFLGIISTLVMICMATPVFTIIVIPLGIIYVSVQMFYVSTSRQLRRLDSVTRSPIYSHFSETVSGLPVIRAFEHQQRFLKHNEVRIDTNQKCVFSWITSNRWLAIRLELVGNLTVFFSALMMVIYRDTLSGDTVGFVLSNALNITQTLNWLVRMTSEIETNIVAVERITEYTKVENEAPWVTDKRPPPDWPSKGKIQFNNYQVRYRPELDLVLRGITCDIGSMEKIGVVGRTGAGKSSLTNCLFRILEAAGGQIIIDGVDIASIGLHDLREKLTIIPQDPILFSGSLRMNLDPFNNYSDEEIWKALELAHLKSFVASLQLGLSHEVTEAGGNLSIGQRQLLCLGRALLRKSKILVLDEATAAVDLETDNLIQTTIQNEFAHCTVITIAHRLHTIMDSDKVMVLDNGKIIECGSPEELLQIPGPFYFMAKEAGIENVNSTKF

Sequence of ATP-binding cassette sub-family C member 3 (O15438 whole entry): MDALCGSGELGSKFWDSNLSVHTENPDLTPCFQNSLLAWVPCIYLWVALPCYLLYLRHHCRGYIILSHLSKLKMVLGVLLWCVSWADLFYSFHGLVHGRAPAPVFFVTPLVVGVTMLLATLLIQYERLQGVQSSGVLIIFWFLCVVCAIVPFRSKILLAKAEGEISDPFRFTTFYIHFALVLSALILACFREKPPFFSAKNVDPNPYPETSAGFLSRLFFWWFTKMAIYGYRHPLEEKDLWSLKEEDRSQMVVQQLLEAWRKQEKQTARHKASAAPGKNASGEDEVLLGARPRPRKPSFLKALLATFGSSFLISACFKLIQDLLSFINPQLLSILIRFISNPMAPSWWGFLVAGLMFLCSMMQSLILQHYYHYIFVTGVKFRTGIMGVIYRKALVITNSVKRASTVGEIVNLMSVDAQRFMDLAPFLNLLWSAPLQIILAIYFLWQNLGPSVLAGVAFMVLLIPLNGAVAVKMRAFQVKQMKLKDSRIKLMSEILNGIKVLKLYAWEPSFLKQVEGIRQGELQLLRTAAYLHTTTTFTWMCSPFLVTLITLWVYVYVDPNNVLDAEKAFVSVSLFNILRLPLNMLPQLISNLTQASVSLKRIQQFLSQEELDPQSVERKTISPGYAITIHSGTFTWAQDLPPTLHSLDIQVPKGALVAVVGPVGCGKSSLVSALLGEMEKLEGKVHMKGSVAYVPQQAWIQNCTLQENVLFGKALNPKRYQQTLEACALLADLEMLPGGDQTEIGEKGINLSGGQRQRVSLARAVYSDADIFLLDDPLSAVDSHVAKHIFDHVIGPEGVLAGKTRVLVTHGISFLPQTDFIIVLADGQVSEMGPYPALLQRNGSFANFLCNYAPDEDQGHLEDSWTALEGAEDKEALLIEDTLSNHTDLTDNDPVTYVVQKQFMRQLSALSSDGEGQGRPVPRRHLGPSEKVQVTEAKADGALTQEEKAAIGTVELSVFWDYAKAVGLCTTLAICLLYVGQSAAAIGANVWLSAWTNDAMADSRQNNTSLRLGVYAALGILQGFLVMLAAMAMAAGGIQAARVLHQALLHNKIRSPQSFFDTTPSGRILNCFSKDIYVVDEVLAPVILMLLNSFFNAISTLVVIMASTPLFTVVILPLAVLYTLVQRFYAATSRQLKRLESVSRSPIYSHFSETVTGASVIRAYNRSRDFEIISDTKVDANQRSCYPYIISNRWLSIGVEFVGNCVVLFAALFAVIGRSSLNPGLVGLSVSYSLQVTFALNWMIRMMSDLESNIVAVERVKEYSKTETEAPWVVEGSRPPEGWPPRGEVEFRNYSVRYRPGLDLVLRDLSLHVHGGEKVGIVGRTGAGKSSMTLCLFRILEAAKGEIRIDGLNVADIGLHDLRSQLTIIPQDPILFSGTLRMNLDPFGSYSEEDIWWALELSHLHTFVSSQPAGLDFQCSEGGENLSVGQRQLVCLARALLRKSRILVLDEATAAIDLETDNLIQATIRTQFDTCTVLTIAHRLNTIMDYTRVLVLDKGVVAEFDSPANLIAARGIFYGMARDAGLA
Sequence of Bile salt export pump (O95342 whole entry): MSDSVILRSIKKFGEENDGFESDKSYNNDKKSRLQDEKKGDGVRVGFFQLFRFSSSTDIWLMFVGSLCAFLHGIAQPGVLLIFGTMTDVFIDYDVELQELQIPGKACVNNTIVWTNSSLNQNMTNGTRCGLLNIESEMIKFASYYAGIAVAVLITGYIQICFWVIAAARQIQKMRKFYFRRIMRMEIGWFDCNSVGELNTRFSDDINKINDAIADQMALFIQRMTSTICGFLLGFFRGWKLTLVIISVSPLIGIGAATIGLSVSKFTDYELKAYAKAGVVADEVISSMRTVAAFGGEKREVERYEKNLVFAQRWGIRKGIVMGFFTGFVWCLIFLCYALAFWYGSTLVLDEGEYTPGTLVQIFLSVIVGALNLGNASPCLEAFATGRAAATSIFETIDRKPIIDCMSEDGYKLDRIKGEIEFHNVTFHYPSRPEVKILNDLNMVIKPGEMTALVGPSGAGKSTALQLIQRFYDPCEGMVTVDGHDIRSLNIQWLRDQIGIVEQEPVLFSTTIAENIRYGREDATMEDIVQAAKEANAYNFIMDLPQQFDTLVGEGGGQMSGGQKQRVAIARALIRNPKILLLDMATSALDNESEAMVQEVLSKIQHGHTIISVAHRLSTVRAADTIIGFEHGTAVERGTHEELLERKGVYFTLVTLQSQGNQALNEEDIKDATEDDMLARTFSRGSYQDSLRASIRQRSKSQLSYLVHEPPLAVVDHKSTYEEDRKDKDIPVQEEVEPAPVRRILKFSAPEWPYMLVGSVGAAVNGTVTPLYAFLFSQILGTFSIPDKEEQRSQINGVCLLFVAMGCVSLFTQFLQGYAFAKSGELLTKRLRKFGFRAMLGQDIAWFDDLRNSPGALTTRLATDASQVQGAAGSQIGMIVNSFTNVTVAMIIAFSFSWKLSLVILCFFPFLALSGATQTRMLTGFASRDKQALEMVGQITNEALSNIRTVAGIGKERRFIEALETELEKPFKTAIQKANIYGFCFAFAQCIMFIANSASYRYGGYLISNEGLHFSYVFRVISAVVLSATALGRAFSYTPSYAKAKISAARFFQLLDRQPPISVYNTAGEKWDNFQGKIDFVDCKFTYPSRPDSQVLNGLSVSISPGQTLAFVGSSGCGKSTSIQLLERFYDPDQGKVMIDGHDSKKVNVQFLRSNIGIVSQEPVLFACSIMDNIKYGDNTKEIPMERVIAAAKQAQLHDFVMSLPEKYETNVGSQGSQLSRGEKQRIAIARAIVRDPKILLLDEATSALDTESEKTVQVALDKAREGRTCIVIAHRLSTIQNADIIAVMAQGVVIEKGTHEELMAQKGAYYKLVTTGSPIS

Compound: CC(C)NNC(=O)c1ccncc1 [IPRONIAZID]
- IC50 [1]: > 133 µM
- IC50 [2]: > 133 µM
- IC50 (Bile salt export pump): > 133 µM
- IC50 [3]: > 133 µM

Compound: Cc1ccc(S(=O)(=O)NC(=O)NN2CC3CCCC3C2)cc1 (stereo not given) [GLICLAZIDE]
- IC50 [1]: > 133 µM
- IC50 [2]: > 133 µM
- IC50 (Bile salt export pump): > 133 µM
- IC50 [3]: > 133 µM

Compound: O=S(=O)(O)CCS [MESNA]
- IC50 [1]: > 133 µM
- IC50 [2]: > 133 µM
- IC50 (Bile salt export pump): > 133 µM
- IC50 [3]: > 133 µM

Compound: Cc1cn([C@H]2C[C@H](N=[N+]=[N-])[C@@H](CO)O2)c(=O)[nH]c1=O [ZIDOVUDINE]
- IC50 [1]: > 133 µM
- IC50 [2]: > 133 µM
- IC50 (Bile salt export pump): > 133 µM
- IC50 [3]: > 133 µM

Compound: C=CC[N+]1([C@H]2C[C@H]3[C@@H]4CC[C@H]5C[C@H](O)[C@@H](N6CCOCC6)C[C@]5(C)[C@H]4CC[C@]3(C)[C@H]2OC(C)=O)CCCC1 [ROCURONIUM BROMIDE]
- IC50 [1]: > 133 µM
- IC50 [2]: > 133 µM
- IC50 (Bile salt export pump): > 133 µM
- IC50 [3]: > 133 µM

Compound: CC(C)c1ccc2oc3nc(N)c(C(=O)O)cc3c(=O)c2c1 [AMLEXANOX]
- IC50 [1]: > 133 µM
- IC50 [2]: 2.2 µM
- IC50 (Bile salt export pump): 104 µM
- IC50 [3]: > 133 µM

Compound: Cc1cn([C@@H]2C[C@@H](O)[C@H](CO)O2)c(=O)[nH]c1=O [TELBIVUDINE]
- IC50 [1]: > 133 µM
- IC50 [2]: > 133 µM
- IC50 (Bile salt export pump): > 133 µM
- IC50 [3]: > 133 µM

Compound: N[C@@H](CC(=O)N1CCn2c(nnc2C(F)(F)F)C1)Cc1cc(F)c(F)cc1F [SITAGLIPTIN]
- IC50 [1]: > 133 µM
- IC50 [2]: > 133 µM
- IC50 (Bile salt export pump): > 133 µM
- IC50 [3]: > 133 µM

Compound: C=CCN1C[C@H](C(=O)N(CCCN(C)C)C(=O)NCC)C[C@@H]2c3cccc4[nH]cc(c34)C[C@H]21 [CABERGOLINE]
- IC50 [1]: > 133 µM
- IC50 [2]: > 133 µM
- IC50 (Bile salt export pump): > 133 µM
- IC50 [3]: > 133 µM

Compound: c1cc(CN2CCCNCCNCCCNCC2)ccc1CN1CCCNCCNCCCNCC1 [PLERIXAFOR]
- IC50 [1]: > 133 µM
- IC50 [2]: > 133 µM
- IC50 (Bile salt export pump): > 133 µM
- IC50 [3]: > 133 µM

Compound: Nc1ccc(S(=O)(=O)Nc2ncccn2)cc1 [SULFADIAZINE]
- IC50 [1]: > 133 µM
- IC50 [2]: > 133 µM
- IC50 (Bile salt export pump): > 133 µM
- IC50 [3]: > 133 µM

Compound: Nc1nc(=O)n([C@@H]2CS[C@H](CO)O2)cc1F [EMTRICITABINE]
- IC50 [1]: > 133 µM
- IC50 [2]: > 133 µM
- IC50 (Bile salt export pump): > 133 µM
- IC50 [3]: > 133 µM

Further lines, with some results ahead:

- IC50 [1]: > 133 µM
- IC50 [2]: > 133 µM
- IC50 [3]: > 133 µM
Compound: C[C@@H]1C[C@H]2[C@@H]3CCC4=CC(=O)C=C[C@]4(C)[C@@]3(F)[C@@H](O)C[C@]2(C)[C@@]1(O)C(=O)CO [DEXAMETHASONE]
- IC50 (Bile salt export pump): > 133 µM

- IC50 [1]: > 133 µM
- IC50 [2]: 3 µM
- IC50 [3]: > 133 µM
Compound: CC(C(=O)O)c1ccc2c(c1)[nH]c1ccc(Cl)cc12 (stereo not given) [CARPROFEN]
- IC50 (Bile salt export pump): > 133 µM

- IC50 [1]: > 133 µM
- IC50 [2]: > 133 µM
- IC50 [3]: > 133 µM
Compound: Nc1nc2c(c(=O)[nH]1)N(C=O)C(CNc1ccc(C(=O)N[C@@H](CCC(=O)O)C(=O)O)cc1)CN2 (stereo not given in full) [LEUCOVORIN CALCIUM]
- IC50 (Bile salt export pump): > 133 µM

- IC50 [1]: > 133 µM
- IC50 [2]: > 133 µM
- IC50 [3]: > 133 µM
Compound: CC(C)(C)NCC(O)COc1cccc2c1CC(O)C(O)C2 (stereo not given) [NADOLOL]
- IC50 (Bile salt export pump): > 133 µM

- IC50 [1]: > 133 µM
- IC50 [2]: > 133 µM
- IC50 [3]: > 133 µM
Compound: Cn1nnc2c(C(N)=O)ncn2c1=O [TEMOZOLOMIDE]
- IC50 (Bile salt export pump): > 133 µM

- IC50 [1]: > 133 µM
- IC50 [2]: > 133 µM
- IC50 [3]: > 133 µM
Compound: CCn1cc(C(=O)O)c(=O)c2cc(F)c(N3CCNCC3)nc21 [ENOXACIN]
- IC50 (Bile salt export pump): > 133 µM

- IC50 [1]: > 133 µM
- IC50 [2]: > 133 µM
- IC50 [3]: > 133 µM
Compound: CN1C(C(=O)Nc2ccccn2)=C(O)c2ccccc2S1(=O)=O [PIROXICAM]
- IC50 (Bile salt export pump): > 133 µM

- IC50 [1]: > 133 µM
- IC50 [2]: > 133 µM
- IC50 [3]: > 133 µM
Compound: CNCC[C@@H](Oc1ccccc1C)c1ccccc1 [ATOMOXETINE HYDROCHLORIDE]
- IC50 (Bile salt export pump): > 133 µM

Source: ChEMBL document CHEMBL4028801, “A multifactorial approach to hepatobiliary transporter assessment enables improved therapeutic compound development” (Toxicol Sci, 2013)
